Experimental data published in patent US9895370B2, “Pharmaceutical composition for preventing or treating of cirrhosis of liver comprising G protein coupled receptor 119 ligand as an active ingredient” (DONGGUK UNIVERSITY INDUSTRY—ACADEMIC COOPERATION FOUNDATION, priority 2015, dated 2018).

Test system: human HSC line LX-2
Assay: TGFβ1-inducible collagen I and TGFβ expression in LX-2
Format: cell-based
Conditions: LX-2 treated with TGFβ1; FIGS. 2c, 2d
Description: A human HSC line (LX-2, Milipore, U.S.A.) was plated in a 6-well plate, and grown to confluency in DMEM supplemented with 1% penicillin-streptomycin (Hyclone, U.S.A.) and 2% fetal bovine serum (Hyclone, U.S.A.) at 37° C. in a 5% CO2 incubator. For a further experiment, the confluent HSC line was incubated in an FBS-free medium, instead of the 2% FBS-added medium.
Total RNA ([…]) extracted from cells using Trizol and a Maxime RT PreMix Kit (iNtRON Biotechnology, Gyeonggi-do, Korea) was used to obtain cDNA. For RT-PCR, a target gene was amplified by PCR using a Maxime™ PCR PreMix Kit according to the manufacturer's instructions, and subjected to electrophoresis in a 2% agrose gel, thereby identifying the amplified PCR product.
Meanwhile, for real-time RT-qPCR, the synthesized cDNA was assessed in a CFX Connect™ Real-Time PCR Detection System (Bio-Rad Laboratories, CA, USA) instrument using a SYBR green dye (Bio-Rad). The CP value of the gene was calibrated with the CP value of S 18r gene. Also, through a melting curve analysis, specificity of the amplified PCR product was confirmed.
Sodium dodecylsulfate-polyacrylamide gel electrophoresis (SDS-PAGE) was performed using a gel electrophoresis device (Mighty Small SE 250, Hoefer Scientific Instruments, San Francisco) according to the method established by the inventors. A lysed cell fraction was diluted with a sample dilution buffer [63 mM Tris (pH. 6.8), 10% glycerol, 2% SDS, 0.0013% bromophenol blue, 5% β-mercaptoethanol], and subjected to electrophoresis in an electrode buffer (15 g Tris, 72 g glycerin and 5 g SDS contained in an 1 L solution) using a 8-12% gel. After electrophoresis, the gel was transferred to a nitrocellulose membrane to transfer proteins using an electrophoresis device for transfer in a transfer buffer (25 mM Tris, 192 mM glycerin, 20% v/v methanol (pH. 8.3)] at 40 mA for 3 hours. The nitrocellulose membrane was reacted with first antibodies, reacted with horseradish peroxidase-conjugated goat anti-rabbit IgG and horseradish peroxidase-conjugated goat anti-mouse IgG as secondary antibodies for 1 hour, and visualized using an ECL chemiluminescence system (Amersham, Gaithesberg, Mass.).
A critical cytokine having an influence on the induction of liver fibrosis, TGFβ1, is a potent fibrosis stimulation factor for HSCs. To examine the expression of a liver fibrosis-inducing factor which was increased when the human liver cell line LX-2, cultured by method D was treated with TGFβ1, changes in expression according to the treatment with GPR119 ligands (MBX-2982, GSK1292263) were assessed by the methods described in G and H, thereby observing the effect of the GPR119 ligands.

CC(C)c1noc(N2CCC(COc3ccc(-c4ccc(S(C)(=O)=O)cc4)nc3)CC2)n1 [GSK1292263, 3-isopropyl-5-(4-(((6-(4-(methylsulfonyl)phenyl)pyridin-3-yl)oxy)methyl)piperidin-1-yl)-1,2,4-oxadiazole]
expression of TGFβ1-inducible TGFβ: inhibited
expression of TGFβ1-inducible collagen I: inhibited
